≈ marks a conversion by molar mass, not a printed value. Where two headings read alike, the source gives them in different places.
What was measured:
Format in all cases: cell-based
E. coli DC 2 = experiment: In vitro antibacterial activity, MIC by agar dilution method; conditions: Escherichia coli
Description: (§1) The typical examples of the present compounds were tested for antimicrobial activity in vitro against twenty strains of Gram-positive and Gram-negative microorganisms.
(§2) The numerals in the table 1 show minimum inhibitory concentrations(MIC in µg/ml). The minimum inhibitory concentrations were determined according to the agar dilution method recommended by Japan Society of Chemotherapy[Chemotherapy., 29, 76 (1981)].

S. pyogenes A 77 = experiment: as above; conditions: Streptococcus pyogenes, A77, read-out: In vitro Antibacterial Activity, MIC
Description: as §1, §2

S. aureus SG 511 = experiment: as above; conditions: Staphylococcus aureus, SG511, read-out: In vitro Antibacterial Activity, MIC
Description: as §1, §2

P. aeruginosa 1771 = experiment: as above; conditions: Pseudomonas aeruginosa, 1771, read-out: In vitro Antibacterial Activity, MIC
Description: as §1, §2

S. aureus 503 = experiment: as above; conditions: Staphylococcus aureus, 503, read-out: In vitro Antibacterial Activity, MIC
Description: as §1, §2

P. aeruginosa 1592E = experiment: as above; conditions: Pseudomonas aeruginosa, 1592E, read-out: In vitro Antibacterial Activity, MIC
Description: as §1, §2

S. aureus 285 = experiment: as above; conditions: Staphylococcus aureus, 285, read-out: In vitro Antibacterial Activity, MIC
Description: as §1, §2

K. oxytoca 1082E = experiment: as above; conditions: Klebsiella oxytoca, read-out: In vitro Antibacterial Activity, MIC
Description: as §1, §2

E. coli DC 0 = experiment: as above; conditions: Escherichia coli, DC0, read-out: In vitro Antibacterial Activity, MIC
Description: as §1, §2

E. coli 1507E = experiment: as above; conditions: Escherichia coli, read-out: In vitro Antibacterial Activity, MIC
Description: as §1, §2

P. aeruginosa 1771M = experiment: as above; conditions: Pseudomonas aeruginosa, read-out: In vitro Antibacterial Activity, MIC
Description: as §1, §2

S. pyogenes A 308 = experiment: as above; conditions: Streptococcus pyogenes
Description: as §1, §2

E. coli TEM = experiment: as above; conditions: Escherichia coli, read-out: In vitro Antibacterial Activity, MIC
Description: as §1, §2

S. faecium MD 86 = experiment: as above; conditions: Enterococcus faecium
Description: as §1, §2

P. aeruginosa 9027 = experiment: as above
Description: as §1, §2

[1] = test system: Saphylococcus aureus 692E; experiment: Antibacterial activity for MRSA; conditions: Saphylococcus aureus 692E (MRSA)
Description: (§3) The compound of example 2 was orally administered to determine the LD50 for a group of male mice. […] The antibacterial activity for MRSA(Methicillin Resistant Staphyloccocus Aureus) was tested by the compound of example 2.

[2] = test system: Staphylococcus aureus 121E; experiment: Antibacterial activity for MRSA; conditions: Staphylococcus aureus 121E (MRSA)
Description: as §3

[3] = test system: Staphylococcus aureus 693E; experiment: Antibacterial activity for MRSA; conditions: Staphylococcus aureus 693E (MRSA)
Description: as §3

[4] = test system: Staphylococcus aureus 694E; experiment: Antibacterial activity for MRSA; conditions: Staphylococcus aureus 694E (MRSA)
Description: as §3

[5] = test system: Staphylococcus aureus 701E; experiment: Antibacterial activity for MRSA; conditions: Staphylococcus aureus 701E (MRSA)
Description: as §3

[6] = test system: Staphylococcus aureus 208E; experiment: Antibacterial activity for MRSA; conditions: Staphylococcus aureus 208E (MRSA)
Description: as §3

[7] = test system: Staphylococcus aureus 695E; experiment: Antibacterial activity for MRSA; conditions: Staphylococcus aureus 695E (MRSA)
Description: as §3

[8] = test system: Staphylococcus aureus 707E; experiment: Antibacterial activity for MRSA; conditions: Staphylococcus aureus 707E (MRSA)
Description: as §3

[9] = test system: Staphylococcus aureus 690E; experiment: Antibacterial activity for MRSA; conditions: Staphylococcus aureus 690E (MRSA)
Description: as §3

[10] = test system: Staphylococcus aureus 88 E; experiment: Antibacterial activity for MRSA; conditions: Staphylococcus aureus 88 E (MRSA)
Description: as §3

[11] = test system: Staphylococcus aureus 697E; experiment: Antibacterial activity for MRSA; conditions: Staphylococcus aureus 697E (MRSA)
Description: as §3

[12] = test system: Staphylococcus aureus 705E; experiment: Antibacterial activity for MRSA; conditions: Staphylococcus aureus 705E (MRSA)
Description: as §3

[13] = test system: Staphylococcus aureus 711E; experiment: Antibacterial activity for MRSA; conditions: Staphylococcus aureus 711E (MRSA)
Description: as §3

[14] = test system: Staphylococcus aureus 703E; experiment: Antibacterial activity for MRSA; conditions: Staphylococcus aureus 703E (MRSA)
Description: as §3

[15] = test system: Staphylococcus aureus 256E; experiment: Antibacterial activity for MRSA; conditions: Staphylococcus aureus 256E (MRSA)
Description: as §3

[16] = test system: Staphylococcus aureus 714E; experiment: Antibacterial activity for MRSA; conditions: Staphylococcus aureus 714E (MRSA)
Description: as §3

[17] = test system: Staphylococcus aureus 752E; experiment: Antibacterial activity for MRSA; conditions: Staphylococcus aureus 752E (MRSA)
Description: as §3

[18] = test system: Staphylococcus aureus 706E; experiment: Antibacterial activity for MRSA; conditions: Staphylococcus aureus 706E (MRSA)
Description: as §3

[19] = test system: Staphylococcus aureus 708E; experiment: Antibacterial activity for MRSA; conditions: Staphylococcus aureus 708E (MRSA)
Description: as §3

S. typhimurium = experiment: In vitro antibacterial activity, MIC by agar dilution method; conditions: Salmonella enterica, TYPHIMURIUM, read-out: In vitro Antibacterial Activity, MIC
Description: as §1
(§4) The minimum inhibitory concentrations were determined according to the agar dilution method recommended by Japan Society of Chemotherapy[Chemotherapy., 29, 76 (1981)].

E. coli O 55 = experiment: as above; conditions: Escherichia coli, O55, read-out: In vitro Antibacterial Activity, MIC
Description: as §1, §4

K. aerogenes 1522E = experiment: as above; conditions: Klebsiella aerogenes, 1522E, read-out: In vitro Antibacterial Activity, MIC
Description: as §1, §4

E. cloacae 1321E = experiment: as above; conditions: Enterobacter cloacae, 1321E, read-out: In vitro Antibacterial Activity, MIC
Description: as §1, §4

E. cloacae P99 = experiment: as above; conditions: Enterobacter cloacae, P99, read-out: In vitro Antibacterial Activity, MIC
Description: as §1, §4

O=C(O)c1cn(C2CC2)c2cc(N3CCNCC3)c(F)cc2c1=O [CIP, Ciprofloxacin, reference compound]
MIC (E. coli DC 2; DC2, E. coli DC 2, agar dilution method, read-out: In vitro Antibacterial Activity, MIC): 0.098 µg/mL (≈ 0.296 µM) | MIC (S. pyogenes A 77): 0.195 µg/mL (≈ 0.589 µM) | MIC (S. aureus SG 511): 0.195 µg/mL (≈ 0.589 µM) | MIC (P. aeruginosa 1771): 0.195 µg/mL (≈ 0.589 µM) | MIC (S. aureus 503): 0.391 µg/mL (≈ 1.18 µM) | MIC (P. aeruginosa 1592E): 0.195 µg/mL (≈ 0.589 µM) | MIC (S. aureus 285): 0.195 µg/mL (≈ 0.589 µM) | MIC (K. oxytoca 1082E; K. oxytoca 1082E, agar dilution method): 0.002 µg/mL (≈ 0.00604 µM) | MIC (E. coli DC 0): 0.195 µg/mL (≈ 0.589 µM) | MIC (E. coli 1507E; E. coli 1507E, agar dilution method): 0.049 µg/mL (≈ 0.148 µM) | MIC (P. aeruginosa 1771M; P. aeruginosa 1771M, agar dilution method): 0.049 µg/mL (≈ 0.148 µM) | MIC (S. pyogenes A 308; A308, S. pyogenes A 308, agar dilution method, read-out: In vitro Antibacterial Activity, MIC): 1.56 µg/mL (≈ 4.72 µM) | MIC (E. coli TEM; E. coli TEM, agar dilution method): 0.098 µg/mL (≈ 0.296 µM) | MIC (S. faecium MD 86; MD86, S. faecium MD 86, agar dilution method, read-out: In vitro Antibacterial Activity, MIC): 0.781 µg/mL (≈ 2.36 µM) | MIC (P. aeruginosa 9027; Pseudomonas aeruginosa, P. aeruginosa 9027, agar dilution method, read-out: In vitro Antibacterial Activity, MIC): 0.098 µg/mL (≈ 0.296 µM) | Antibacterial Activity for MRSA [1]: 0.195 µg/mL | Antibacterial Activity for MRSA [2]: 0.391 µg/mL | Antibacterial Activity for MRSA [3]: 0.391 µg/mL | Antibacterial Activity for MRSA [4]: 0.391 µg/mL | Antibacterial Activity for MRSA [5]: 0.391 µg/mL | Antibacterial Activity for MRSA [6]: 0.195 µg/mL | Antibacterial Activity for MRSA [7]: 0.391 µg/mL | Antibacterial Activity for MRSA [8]: 0.391 µg/mL | Antibacterial Activity for MRSA [9]: 0.195 µg/mL | Antibacterial Activity for MRSA [10]: 0.391 µg/mL | Antibacterial Activity for MRSA [11]: 0.195 µg/mL | Antibacterial Activity for MRSA [12]: 0.391 µg/mL | Antibacterial Activity for MRSA [13]: 0.098 µg/mL | Antibacterial Activity for MRSA [14]: 0.195 µg/mL | Antibacterial Activity for MRSA [15]: 0.391 µg/mL | Antibacterial Activity for MRSA [16]: 0.195 µg/mL | Antibacterial Activity for MRSA [17]: 0.195 µg/mL | Antibacterial Activity for MRSA [18]: 0.391 µg/mL | Antibacterial Activity for MRSA [19]: 0.098 µg/mL

CSCC1CCN(c2c(F)c(N)c3c(=O)c(C(=O)O)cn(C4CC4)c3c2F)C1 (stereo not drawn) [Example 9, 1-cyclopropyl-5-amino-6,8-difluoro-7-(3-methylthiomethylpyrrolidinyl)-1,4-dihydro-4-oxo-3-quinolinecarboxylic acid]
MIC (E. coli DC 2; DC2, read-out: In vitro Antibacterial Activity, MIC): 0.195 µg/mL (≈ 0.476 µM) | MIC (S. pyogenes A 77): 0.391 µg/mL (≈ 0.955 µM) | MIC (S. aureus SG 511): 0.004 µg/mL (≈ 0.00977 µM) | MIC (P. aeruginosa 1771): 1.56 µg/mL (≈ 3.82 µM) | MIC (S. aureus 503): 0.007 µg/mL (≈ 0.0171 µM) | MIC (P. aeruginosa 1592E): 3.12 µg/mL (≈ 7.63 µM) | MIC (S. aureus 285): 0.025 µg/mL (≈ 0.0611 µM) | MIC (K. oxytoca 1082E; 1082E): 1.56 µg/mL (≈ 3.82 µM) | MIC (E. coli DC 0): 3.12 µg/mL (≈ 7.63 µM) | MIC (E. coli 1507E; 1507E): 0.025 µg/mL (≈ 0.0611 µM) | MIC (P. aeruginosa 1771M; 1771M): 0.781 µg/mL (≈ 1.91 µM) | MIC (S. pyogenes A 308; A308, read-out: In vitro Antibacterial Activity, MIC): 0.195 µg/mL (≈ 0.476 µM) | MIC (E. coli TEM): 0.025 µg/mL (≈ 0.0611 µM) | MIC (S. faecium MD 86; MD86, read-out: In vitro Antibacterial Activity, MIC): 1.2 µg/mL (≈ 2.92 µM) | MIC (P. aeruginosa 9027; Pseudomonas aeruginosa, 9027, read-out: In vitro Antibacterial Activity, MIC): 3.12 µg/mL (≈ 7.63 µM) | MIC (S. typhimurium): 0.049 µg/mL (≈ 0.12 µM) | MIC (E. coli O 55): 0.013 µg/mL (≈ 0.0317 µM) | MIC (K. aerogenes 1522E): 3.12 µg/mL (≈ 7.63 µM) | MIC (E. cloacae 1321E): 0.049 µg/mL (≈ 0.12 µM) | MIC (E. cloacae P99): 0.049 µg/mL (≈ 0.12 µM)
